Test results from patent publication US20030017520A1, “High-efficiency assay for protein mannosyl transferases” (priority 2001, published 2003).
Several values for one entry are separate records, joined by “and”; a condition that tells them apart may be missing. Identical values can stand only once. Entries after “also recorded” stand apart in the source; their conditions may differ.

What was measured:
[1] = test system: protein mannosyl transferases (PMTs), crude enzyme; assay: LUV-based (UPV) PMT activity assay: transfer of [3H]-mannose from Dol-P-Man to acceptor peptide; format: biochemical, S. cervisiae; details: for inhibition of the PMT enzyme by divalent cation chelator: LUV assay conditions (FIG. 7B)
Procedure: The assays using the UPV method contained 20 mM Tris-HCl, pH 7.5, 10 mM MgCl2, 2.5 mM of the peptide, YNPTSV, 1.5 μl Dol-P-[^3H]-Man (approximately 0.9×10^6 cpm) “solubilized” in 100 μg POPC LUV's and 8 μg of crude enzyme (see Example 2) in a final volume of 40 μl. The assay samples were incubated for 2-30 minutes (varied per individual experiments) at 20° C. and at the end of the incubation the reaction was stopped by the addition of 10 μl 50 mM CuSO4 or 1 ml 0.1% TFA.
Assay reaction products were isolated on C18 cartridges (1 cc/100 mg Bond Elut) obtained from Varian [Homa et al. Prot. Exp. Purif., 6:141-48; 1995]. Isolation of reaction product by solvent extraction was carried out as described by Strahl-Bolsinger and Tanner [Eur. J. Biochem., 196:185-90; 1991].
As part of the characterization of the UPV PMT assay, other parameters such as the influence of detergents and ion dependence were also investigated. PMT assays (using LUVs as produced by the method in Example 3) were conducted by the methods of Example 5. Assays were performed at two concentrations of enzymes (5 and 10 μl). Buffers containing only CHAPS or CHAPS+50% glycerol were substituted for the standard Extraction Buffer used to solubilize the ezyme (see FIG. 6A). The effect of increased detergent concentration was investigated by the addition of increasing amounts of Extraction Buffer (see FIG. 6B).
Experiments were also conducted (as described immediately above) to determine whether PMTs are ion dependent. The control assay (10 mM Mg) contained LUVs made in buffer containing 10 mM MgCl2. All other assays contained LUVs prepared in buffer without MgCl2. […] Enzymol. Relat. Areas Mol. Biol., 52:23-175; 1981].

[2] = test system: protein mannosyl transferases (PMTs); details: detergent based assay; read-out: Km previously determined; cited from earlier work
acceptor peptide YNPTSV = test system: T1, acceptor peptide YNPTSV
T1 sequence: YNPTSV

O=C(O)CN(CCN(CC(=O)O)CC(=O)O)CC(=O)O [EDTA]
inhibition of the PMT enzyme by divalent cation chelator [1]: does not inhibit the enzyme; also recorded: appears not to inhibit the enzyme

O=C(O)CN(CCOCCOCCN(CC(=O)O)CC(=O)O)CC(=O)O [EGTA]
inhibition of the PMT enzyme by divalent cation chelator [1]: equally ineffective

c1cnc2c(c1)ccc1cccnc12 [orthophenanthroline]
inhibition of the PMT enzyme by divalent cation chelator [1]: equally ineffective

YNPTSV (synthesized acceptor peptide) [standard synthetic acceptor peptide containing an acceptor site for PMTs]
Vmax ([1]; Dol-P-Man in POPC LUVs, crude enzyme preparation): approximately 7.25 pmol min.^−1 mg protein^−1
Km ([1]; Dol-P-Man in POPC LUVs, crude enzyme preparation (yeast microsomal lysate), read-out: apparent Km for the acceptor peptide): 1500 µM and ~1000 µM
Km [2]: 3300 µM

protein mannosyl transferases (PMTs), crude detergent extract of S. cervisiae (strain BY4743) microsomal membranes
Vmax (LUV-based PMT enzyme activity assay, crude enzyme) (acceptor peptide YNPTSV): Vmax was determined to be approximately 7.25 pmol min.^-1 mg protein^-1
apparent Km (LUV-based PMT enzyme activity assay, crude enzyme) (acceptor peptide YNPTSV): the apparent Km (using crude enzyme preparation) was determined to be approximately 1 mM
apparent Km (LUV-based PMT enzyme activity assay, crude yeast microsomal lysate) (acceptor peptide YNPTSV): an apparent Km of 1.5 mM, for the acceptor peptide YNPTSV
